Measurements published in the CheMixHub viscosity set.
Where “and” joins values, the source holds several entries; their conditions need not be identical. Equal entries are not always repeated.

Test: xn = mol fraction of the nth substance listed

CC(C)C(=O)O + O
Details | viscosity
293.15 K, 101.33 kPa, x1 = 0.011 | 1.181 mPa·s
293.15 K, 101.33 kPa, x1 = 0.0222 | 1.448 mPa·s
293.15 K, 101.33 kPa, x1 = 0.0348 | 1.558 mPa·s
293.15 K, 101.33 kPa, x1 = 0.0486 | 1.779 mPa·s
299.35 K, 101.33 kPa, x1 = 0.11 | 2.904 mPa·s
299.36 K, 101.33 kPa, x1 = 0.11 | 2.896 mPa·s
299.37 K, 101.33 kPa, x1 = 0.11 | 2.882 mPa·s
299.38 K, 101.33 kPa, x1 = 0.11 | 2.868 mPa·s
299.39 K, 101.33 kPa, x1 = 0.11 | 2.846 mPa·s and 2.836 mPa·s
299.4 K, 101.33 kPa, x1 = 0.11 | 2.813 mPa·s
299.43 K, 101.33 kPa, x1 = 0.11 | 2.767 mPa·s
299.45 K, 101.33 kPa, x1 = 0.11 | 2.751 mPa·s
299.48 K, 101.33 kPa, x1 = 0.11 | 2.711 mPa·s
299.5 K, 101.33 kPa, x1 = 0.11 | 2.69 mPa·s
299.56 K, 101.33 kPa, x1 = 0.11 | 2.645 mPa·s
299.64 K, 101.33 kPa, x1 = 0.11 | 2.606 mPa·s
299.72 K, 101.33 kPa, x1 = 0.11 | 2.571 mPa·s
299.85 K, 101.33 kPa, x1 = 0.11 | 2.541 mPa·s
299.96 K, 101.33 kPa, x1 = 0.11 | 2.506 mPa·s
300.15 K, 101.33 kPa, x1 = 0.11 | 2.466 mPa·s
300.4 K, 101.33 kPa, x1 = 0.11 | 2.422 mPa·s
301.15 K, 101.33 kPa, x1 = 0.11 | 2.317 mPa·s
302.15 K, 101 kPa, x1 = 0.0106 | 0.9416 mPa·s
302.15 K, 101 kPa, x1 = 0.0222 | 1.066 mPa·s
302.15 K, 101 kPa, x1 = 0.0348 | 1.21 mPa·s
302.15 K, 101 kPa, x1 = 0.0486 | 1.388 mPa·s
302.15 K, 101 kPa, x1 = 0.0545 | 1.469 mPa·s
302.15 K, 101 kPa, x1 = 0.0638 | 1.6 mPa·s
302.15 K, 101 kPa, x1 = 0.0737 | 1.74 mPa·s
302.15 K, 101 kPa, x1 = 0.0806 | 1.837 mPa·s
302.15 K, 101 kPa, x1 = 0.0915 | 1.999 mPa·s
302.15 K, 101 kPa, x1 = 0.1114 | 2.213 mPa·s
302.15 K, 101 kPa, x1 = 0.12 | 2.285 mPa·s
302.15 K, 101 kPa, x1 = 0.129 | 2.348 mPa·s
302.15 K, 101 kPa, x1 = 0.1433 | 2.423 mPa·s
302.15 K, 101 kPa, x1 = 0.1698 | 2.499 mPa·s
302.15 K, 101 kPa, x1 = 0.1999 | 2.568 mPa·s
302.15 K, 101 kPa, x1 = 0.2347 | 2.614 mPa·s
302.15 K, 101 kPa, x1 = 0.323 | 2.632 mPa·s
302.15 K, 101 kPa, x1 = 0.4499 | 2.493 mPa·s
302.15 K, 101 kPa, x1 = 0.4996 | 2.403 mPa·s
302.15 K, 101 kPa, x1 = 0.7953 | 1.685 mPa·s
302.15 K, 101 kPa, x1 = 0.9529 | 1.27 mPa·s
302.27 K, 101.33 kPa, x1 = 0.11 | 2.211 mPa·s
303.11 K, 101.33 kPa, x1 = 0.11 | 2.144 mPa·s
303.15 K, 101.33 kPa, x2 = 0.352 | 1.51 mPa·s
303.15 K, 101.33 kPa, x2 = 0.55 | 2.12 mPa·s
303.15 K, 101.33 kPa, x2 = 0.677 | 2.43 mPa·s
303.15 K, 101.33 kPa, x2 = 0.765 | 2.51 mPa·s
303.15 K, 101.33 kPa, x2 = 0.83 | 2.42 mPa·s
303.15 K, 101.33 kPa, x2 = 0.88 | 2 mPa·s
303.15 K, 101.33 kPa, x2 = 0.919 | 1.58 mPa·s
303.15 K, 101.33 kPa, x2 = 0.951 | 1.28 mPa·s
303.15 K, 101.33 kPa, x2 = 0.978 | 1.02 mPa·s
304.12 K, 101.33 kPa, x1 = 0.11 | 2.07 mPa·s
305.07 K, 101.33 kPa, x1 = 0.11 | 2.003 mPa·s
305.15 K, 101 kPa, x1 = 0.0106 | 0.8833 mPa·s
305.15 K, 101 kPa, x1 = 0.0222 | 0.9974 mPa·s
305.15 K, 101 kPa, x1 = 0.0348 | 1.127 mPa·s
305.15 K, 101 kPa, x1 = 0.0486 | 1.284 mPa·s
305.15 K, 101 kPa, x1 = 0.0545 | 1.355 mPa·s
305.15 K, 101 kPa, x1 = 0.0638 | 1.469 mPa·s
305.15 K, 101 kPa, x1 = 0.0737 | 1.59 mPa·s
305.15 K, 101 kPa, x1 = 0.0806 | 1.673 mPa·s
305.15 K, 101 kPa, x1 = 0.0915 | 1.799 mPa·s
305.15 K, 101 kPa, x1 = 0.1114 | 1.993 mPa·s
305.15 K, 101 kPa, x1 = 0.12 | 2.06 mPa·s
305.15 K, 101 kPa, x1 = 0.129 | 2.117 mPa·s
305.15 K, 101 kPa, x1 = 0.1433 | 2.18 mPa·s
305.15 K, 101 kPa, x1 = 0.1698 | 2.271 mPa·s
305.15 K, 101 kPa, x1 = 0.1999 | 2.339 mPa·s
305.15 K, 101 kPa, x1 = 0.2347 | 2.388 mPa·s
305.15 K, 101 kPa, x1 = 0.323 | 2.423 mPa·s
305.15 K, 101 kPa, x1 = 0.4499 | 2.32 mPa·s
305.15 K, 101 kPa, x1 = 0.4996 | 2.244 mPa·s
305.15 K, 101 kPa, x1 = 0.6404 | 1.959 mPa·s
305.15 K, 101 kPa, x1 = 0.7953 | 1.597 mPa·s
305.15 K, 101 kPa, x1 = 0.9529 | 1.214 mPa·s
306.72 K, 101.33 kPa, x1 = 0.11 | 1.907 mPa·s
307.67 K, 101.33 kPa, x1 = 0.11 | 1.855 mPa·s
308.15 K, 101 kPa, x1 = 0.0106 | 0.8203 mPa·s
308.15 K, 101 kPa, x1 = 0.0222 | 0.9263 mPa·s
308.15 K, 101 kPa, x1 = 0.0348 | 1.049 mPa·s
308.15 K, 101 kPa, x1 = 0.0486 | 1.194 mPa·s
308.15 K, 101 kPa, x1 = 0.0545 | 1.259 mPa·s
308.15 K, 101 kPa, x1 = 0.0638 | 1.361 mPa·s
308.15 K, 101 kPa, x1 = 0.0737 | 1.468 mPa·s
308.15 K, 101 kPa, x1 = 0.0806 | 1.541 mPa·s
308.15 K, 101 kPa, x1 = 0.0915 | 1.651 mPa·s
308.15 K, 101 kPa, x1 = 0.1114 | 1.827 mPa·s
308.15 K, 101 kPa, x1 = 0.12 | 1.878 mPa·s
308.15 K, 101 kPa, x1 = 0.129 | 1.927 mPa·s
308.15 K, 101 kPa, x1 = 0.1433 | 1.99 mPa·s
308.15 K, 101 kPa, x1 = 0.1698 | 2.077 mPa·s
308.15 K, 101 kPa, x1 = 0.1999 | 2.144 mPa·s
308.15 K, 101 kPa, x1 = 0.2347 | 2.195 mPa·s
308.15 K, 101 kPa, x1 = 0.323 | 2.24 mPa·s
308.15 K, 101 kPa, x1 = 0.4499 | 2.156 mPa·s
308.15 K, 101 kPa, x1 = 0.4996 | 2.089 mPa·s
308.15 K, 101 kPa, x1 = 0.6404 | 1.837 mPa·s
308.15 K, 101 kPa, x1 = 0.7953 | 1.504 mPa·s
308.15 K, 101 kPa, x1 = 0.9529 | 1.155 mPa·s
311.15 K, 101 kPa, x1 = 0.0106 | 0.765 mPa·s
311.15 K, 101 kPa, x1 = 0.0222 | 0.8626 mPa·s
313.15 K, 101.33 kPa, x1 = 0.011 | 0.767 mPa·s
313.15 K, 101.33 kPa, x1 = 0.0222 | 0.907 mPa·s
313.15 K, 101.33 kPa, x1 = 0.0348 | 0.965 mPa·s
313.15 K, 101.33 kPa, x1 = 0.0486 | 1.094 mPa·s
